From paper PMC7933930, “Development of a small molecule that corrects misfolding and increases secretion of Z α1‐antitrypsin” (EMBO Molecular Medicine, 2021)

Legend:
PXR (rat) = PXR (rat) (Rattus norvegicus, UniProt Q9R1A7); test: Off‐target panel: PXR (rat); format: cell-based
Experimental: (§1) GSK716 selectivity and PK properties were profiled in order to investigate the suitability of GSK716 for progression into in vivo studies and the potential for taking it forward as a clinical candidate for testing in humans. Since GSK716 results in loss of inhibitory activity of α1‐antitrypsin, the effect of the compound was assessed on other closely related serpins. […] Furthermore, there were no off‐target effects in a panel of assays considered predictive of known safety liabilities that precluded further development of GSK716 (Table EV1).

Z α1‐antitrypsin = Z α1‐antitrypsin (Homo sapiens, UniProt P01009, E366K); test: TR‐FRET immunoassay (2C1 antibody) of Z α1‐antitrypsin polymerisation, 37°C, 72 h; format: biochemical; set-up: purified from the plasma of Z α1‐antitrypsin homozygotes; from tissue; host or cells: human plasma of Z α1-antitrypsin homozygotes
Sequence of Z α1‐antitrypsin (P01009 25-418 E366K): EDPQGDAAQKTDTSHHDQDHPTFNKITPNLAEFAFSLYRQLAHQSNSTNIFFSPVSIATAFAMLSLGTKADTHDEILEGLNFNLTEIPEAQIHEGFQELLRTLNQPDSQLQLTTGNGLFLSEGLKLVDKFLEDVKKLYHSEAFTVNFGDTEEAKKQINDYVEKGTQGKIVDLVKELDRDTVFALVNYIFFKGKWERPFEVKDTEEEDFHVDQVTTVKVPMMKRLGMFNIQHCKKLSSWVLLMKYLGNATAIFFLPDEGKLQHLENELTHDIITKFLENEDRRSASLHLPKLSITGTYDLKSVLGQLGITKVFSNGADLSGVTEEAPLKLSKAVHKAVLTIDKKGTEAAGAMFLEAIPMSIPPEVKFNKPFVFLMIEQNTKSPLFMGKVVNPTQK
Excerpt: Z α1‐antitrypsin is a conformationally dynamic molecule (Lomas et al, 1992; Knaupp et al, 2010) that represents a non‐classical target for drug discovery. A cell‐free assay approach to hit finding was undertaken so as not to miss compounds that bind α1‐antitrypsin and block polymerisation but lack the molecular properties to cross cell membranes. This comprised the following: (i) an encoded library technology (ELT) screen (Goodnow et al, 2017) of a library with a nominal diversity of 2 × 10^12 unique components to identify binders to Z α1‐antitrypsin and (ii) a high‐throughput screen (HTS) of the GSK compound collection (~ 1.7 million compounds) for small molecules that could block polymerisation of Z α1‐antitrypsin. […] In the HTS assay, polymerisation of purified Z α1‐antitrypsin was induced by incubation at 37°C for 72 h in the presence of test compounds, with end‐point quantification of polymers performed using the polymer‐specific monoclonal antibody, 2C1 (Miranda et al, 2010) in a TR‐FRET‐based immunoassay. […]
An antibody‐based time‐resolved fluorescence resonance energy transfer (TR‐FRET) assay was developed to monitor the polymerisation of 5 nM Z α1‐antitrypsin following incubation with varying concentrations of compounds at 37°C for 72 h. This assay used the 2C1 monoclonal antibody (1.25 nM) that is specific to pathological polymers of α1‐antitrypsin (Miranda et al, 2010), a polyclonal antibody (1/320 dilution) that binds to all forms of α1‐antitrypsin (Abcam product 9373), an anti‐mouse IgG (1.5 nM) labelled with fluorescence donor Eu‐W1024 (Perkin Elmer product AD0076) and an anti‐rabbit IgG (14.3 nM labelled with acceptor [APC]). […] The TR‐FRET signal was read on an Envision plate reader (PerkinElmer), by excitation of Europium at 337 nm and detection of emission at 665 and 620 nm.

Muscarinic M2 = molecular target: T1, Muscarinic M2 (Homo sapiens, UniProt P08172); test: Off‐target panel: Muscarinic M2; format: cell-based
T1 sequence (P08172 1-466): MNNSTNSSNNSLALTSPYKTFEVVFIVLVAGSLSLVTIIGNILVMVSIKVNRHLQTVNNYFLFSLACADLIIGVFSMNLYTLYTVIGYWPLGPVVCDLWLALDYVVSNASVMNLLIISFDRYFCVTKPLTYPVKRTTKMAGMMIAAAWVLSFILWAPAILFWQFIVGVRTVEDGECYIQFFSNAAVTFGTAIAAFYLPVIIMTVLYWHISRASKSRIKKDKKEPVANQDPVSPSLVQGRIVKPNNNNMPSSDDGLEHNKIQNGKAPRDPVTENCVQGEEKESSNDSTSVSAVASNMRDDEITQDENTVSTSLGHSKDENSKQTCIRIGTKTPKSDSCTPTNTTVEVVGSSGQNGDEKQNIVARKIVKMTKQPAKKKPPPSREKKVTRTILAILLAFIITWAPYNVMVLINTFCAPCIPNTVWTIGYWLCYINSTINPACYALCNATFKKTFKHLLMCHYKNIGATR
Experimental: as §1

Aurora B (STK12) = Aurora B (STK12) (Homo sapiens, UniProt Q96GD4); test: Off‐target panel: Aurora B (STK12); format: biochemical; details: Inhibition, read-out: Mean (PXC50)
Sequence of Aurora B (STK12) (Q96GD4 whole entry, species assumed): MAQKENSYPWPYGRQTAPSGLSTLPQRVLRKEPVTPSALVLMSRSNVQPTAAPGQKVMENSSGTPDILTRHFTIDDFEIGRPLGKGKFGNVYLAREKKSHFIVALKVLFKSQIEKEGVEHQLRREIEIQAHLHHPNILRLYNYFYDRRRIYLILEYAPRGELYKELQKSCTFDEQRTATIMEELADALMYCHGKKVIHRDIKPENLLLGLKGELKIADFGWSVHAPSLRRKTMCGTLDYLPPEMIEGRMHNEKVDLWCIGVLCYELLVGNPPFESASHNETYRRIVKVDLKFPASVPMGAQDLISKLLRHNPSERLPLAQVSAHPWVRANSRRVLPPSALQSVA
Experimental: as §1

Sequence of PXR (rat) (Q9R1A7 whole entry): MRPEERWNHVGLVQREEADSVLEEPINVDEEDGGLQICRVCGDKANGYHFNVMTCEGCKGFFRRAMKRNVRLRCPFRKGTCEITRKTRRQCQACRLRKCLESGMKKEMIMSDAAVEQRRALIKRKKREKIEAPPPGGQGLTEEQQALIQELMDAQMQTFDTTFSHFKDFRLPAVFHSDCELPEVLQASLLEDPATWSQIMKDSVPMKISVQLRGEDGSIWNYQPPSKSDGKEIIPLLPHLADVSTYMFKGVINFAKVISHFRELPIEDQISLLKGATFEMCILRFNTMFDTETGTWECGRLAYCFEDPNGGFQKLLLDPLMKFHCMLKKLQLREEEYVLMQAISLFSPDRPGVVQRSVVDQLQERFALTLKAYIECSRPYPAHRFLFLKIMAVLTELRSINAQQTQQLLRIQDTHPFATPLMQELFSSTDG

CCC[C@@H](NC(=O)c1cccc2c1CC(=O)N2)[C@@H](O)c1cccc(F)c1C [GSK716]
EC50 (PXR (rat)): 12.6 µM | IC50 (Z α1‐antitrypsin; 5 nM Z α1‐antitrypsin, 37°C, 72 h, read-out: pIC50, blocking polymerisation in the TR‐FRET immunoassay (converted)): 0.00501 µM | increase in potency over GSK425 (Z α1‐antitrypsin; TR‐FRET polymerisation immunoassay): ~ 100 fold | EC50 (Muscarinic M2): > 50.1 µM | IC50 (Muscarinic M2): > 50.1 µM | IC50 (Aurora B (STK12)): > 31.6 µM
